Results as given in the kinase profiling compilation of Christmann-Franck et al. (2016).

Columns and labels:
Experiment in all cases: KINOMEscan competition binding
Conditions in all cases: compound 10.0 µM
[1] = molecular target: MAP4K4 (human) (UniProt O95819)
[2] = molecular target: CSNK1G3 (human) (UniProt Q9Y6M4)
[3] = molecular target: PRKD1 (human) (UniProt Q15139)
[4] = molecular target: NLK (human) (UniProt Q9UBE8)
[5] = molecular target: PKN1 (human) (UniProt Q16512)
[6] = molecular target: MAPK6 (human) (UniProt Q16659)
Sequence of MAPK6 (human) (Q16659 whole entry, looked up): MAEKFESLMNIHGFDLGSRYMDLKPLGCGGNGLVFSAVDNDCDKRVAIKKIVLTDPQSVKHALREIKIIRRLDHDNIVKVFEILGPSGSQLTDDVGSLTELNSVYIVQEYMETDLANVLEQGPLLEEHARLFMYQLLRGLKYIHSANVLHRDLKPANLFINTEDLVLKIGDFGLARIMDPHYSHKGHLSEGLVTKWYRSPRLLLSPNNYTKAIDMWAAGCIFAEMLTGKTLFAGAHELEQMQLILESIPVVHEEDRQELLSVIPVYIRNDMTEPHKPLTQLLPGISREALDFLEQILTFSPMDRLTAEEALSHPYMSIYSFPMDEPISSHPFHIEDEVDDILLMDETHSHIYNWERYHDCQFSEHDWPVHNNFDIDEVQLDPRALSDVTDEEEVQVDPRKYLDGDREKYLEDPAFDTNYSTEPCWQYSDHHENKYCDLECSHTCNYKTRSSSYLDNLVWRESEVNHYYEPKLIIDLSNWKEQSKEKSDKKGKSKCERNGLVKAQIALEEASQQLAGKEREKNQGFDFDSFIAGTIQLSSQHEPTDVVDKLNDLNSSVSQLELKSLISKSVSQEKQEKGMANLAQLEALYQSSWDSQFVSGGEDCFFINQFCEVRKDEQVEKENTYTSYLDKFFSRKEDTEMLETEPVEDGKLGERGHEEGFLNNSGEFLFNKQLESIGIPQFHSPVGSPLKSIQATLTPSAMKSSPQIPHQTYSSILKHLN

[7] = molecular target: MAP3K3 (human) (UniProt Q99759)
[8] = molecular target: CSNK1A1 (human) (UniProt P48729)
[9] = molecular target: CSNK2A1 (human) (UniProt P68400)
[10] = molecular target: MARK3 (human) (UniProt P27448)
[11] = molecular target: RPS6KA4 KD2 (human) (UniProt O75676)
[12] = molecular target: ULK1 (human) (UniProt O75385)
[13] = molecular target: MST1R (human) (UniProt Q04912)
Sequence of MST1R (human) (Q04912 whole entry, looked up): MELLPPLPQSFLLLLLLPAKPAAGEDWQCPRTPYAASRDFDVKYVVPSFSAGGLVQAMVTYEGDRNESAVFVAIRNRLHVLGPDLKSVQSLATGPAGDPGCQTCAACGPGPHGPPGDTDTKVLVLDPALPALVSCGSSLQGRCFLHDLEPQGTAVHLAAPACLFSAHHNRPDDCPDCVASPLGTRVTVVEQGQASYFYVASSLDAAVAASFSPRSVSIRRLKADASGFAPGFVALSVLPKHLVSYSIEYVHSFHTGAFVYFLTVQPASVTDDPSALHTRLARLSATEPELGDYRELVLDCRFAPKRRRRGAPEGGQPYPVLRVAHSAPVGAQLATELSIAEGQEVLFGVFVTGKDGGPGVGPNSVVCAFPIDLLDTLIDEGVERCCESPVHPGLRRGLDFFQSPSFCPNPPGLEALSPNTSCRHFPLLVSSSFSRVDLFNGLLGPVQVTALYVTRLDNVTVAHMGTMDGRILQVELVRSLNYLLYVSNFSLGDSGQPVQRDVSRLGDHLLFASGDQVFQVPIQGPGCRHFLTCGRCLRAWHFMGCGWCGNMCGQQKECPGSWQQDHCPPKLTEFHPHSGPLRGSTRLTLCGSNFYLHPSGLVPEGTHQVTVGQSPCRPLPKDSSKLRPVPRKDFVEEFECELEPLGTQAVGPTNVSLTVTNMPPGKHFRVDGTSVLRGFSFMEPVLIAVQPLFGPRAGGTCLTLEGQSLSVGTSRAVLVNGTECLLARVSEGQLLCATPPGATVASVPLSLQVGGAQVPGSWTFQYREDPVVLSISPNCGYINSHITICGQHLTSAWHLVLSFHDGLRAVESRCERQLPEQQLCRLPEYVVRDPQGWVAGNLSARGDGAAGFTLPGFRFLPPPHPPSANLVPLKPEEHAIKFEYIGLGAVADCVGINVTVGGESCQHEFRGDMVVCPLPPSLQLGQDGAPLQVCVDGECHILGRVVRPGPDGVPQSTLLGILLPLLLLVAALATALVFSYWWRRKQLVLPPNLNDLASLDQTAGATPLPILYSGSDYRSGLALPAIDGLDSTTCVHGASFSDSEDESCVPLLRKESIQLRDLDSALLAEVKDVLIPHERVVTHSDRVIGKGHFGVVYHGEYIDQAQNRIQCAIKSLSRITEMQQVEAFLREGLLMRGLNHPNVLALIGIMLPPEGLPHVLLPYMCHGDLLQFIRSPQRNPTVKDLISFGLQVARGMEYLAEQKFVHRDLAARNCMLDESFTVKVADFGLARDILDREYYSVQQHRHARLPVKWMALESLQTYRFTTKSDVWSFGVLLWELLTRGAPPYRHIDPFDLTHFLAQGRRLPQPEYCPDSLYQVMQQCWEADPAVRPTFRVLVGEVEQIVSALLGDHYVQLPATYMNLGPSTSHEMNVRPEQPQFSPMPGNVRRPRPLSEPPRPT

[14] = molecular target: JAK1 JH1 catalytic (human) (UniProt P23458)
[15] = molecular target: TLK1 (human) (UniProt Q9UKI8)
[16] = molecular target: PIK3CD (human) (UniProt O00329)
[17] = molecular target: STK32B (human) (UniProt Q9NY57)
[18] = molecular target: STK16 (human) (UniProt O75716)
[19] = molecular target: RIOK2 (human) (UniProt Q9BVS4)
[20] = molecular target: PIP4K2C (human) (UniProt Q8TBX8)
[21] = molecular target: FGFR1 (human) (UniProt P11362)
[22] = molecular target: PAK7 (human) (UniProt Q9P286)
[23] = molecular target: CSNK1A1L (human) (UniProt Q8N752)
[24] = molecular target: MAP3K6 (human) (UniProt O95382)
[25] = molecular target: EPHA5 (human) (UniProt P54756)
[26] = molecular target: PIK3CB (human) (UniProt P42338)
Sequence of PIK3CB (human) (P42338 whole entry, looked up): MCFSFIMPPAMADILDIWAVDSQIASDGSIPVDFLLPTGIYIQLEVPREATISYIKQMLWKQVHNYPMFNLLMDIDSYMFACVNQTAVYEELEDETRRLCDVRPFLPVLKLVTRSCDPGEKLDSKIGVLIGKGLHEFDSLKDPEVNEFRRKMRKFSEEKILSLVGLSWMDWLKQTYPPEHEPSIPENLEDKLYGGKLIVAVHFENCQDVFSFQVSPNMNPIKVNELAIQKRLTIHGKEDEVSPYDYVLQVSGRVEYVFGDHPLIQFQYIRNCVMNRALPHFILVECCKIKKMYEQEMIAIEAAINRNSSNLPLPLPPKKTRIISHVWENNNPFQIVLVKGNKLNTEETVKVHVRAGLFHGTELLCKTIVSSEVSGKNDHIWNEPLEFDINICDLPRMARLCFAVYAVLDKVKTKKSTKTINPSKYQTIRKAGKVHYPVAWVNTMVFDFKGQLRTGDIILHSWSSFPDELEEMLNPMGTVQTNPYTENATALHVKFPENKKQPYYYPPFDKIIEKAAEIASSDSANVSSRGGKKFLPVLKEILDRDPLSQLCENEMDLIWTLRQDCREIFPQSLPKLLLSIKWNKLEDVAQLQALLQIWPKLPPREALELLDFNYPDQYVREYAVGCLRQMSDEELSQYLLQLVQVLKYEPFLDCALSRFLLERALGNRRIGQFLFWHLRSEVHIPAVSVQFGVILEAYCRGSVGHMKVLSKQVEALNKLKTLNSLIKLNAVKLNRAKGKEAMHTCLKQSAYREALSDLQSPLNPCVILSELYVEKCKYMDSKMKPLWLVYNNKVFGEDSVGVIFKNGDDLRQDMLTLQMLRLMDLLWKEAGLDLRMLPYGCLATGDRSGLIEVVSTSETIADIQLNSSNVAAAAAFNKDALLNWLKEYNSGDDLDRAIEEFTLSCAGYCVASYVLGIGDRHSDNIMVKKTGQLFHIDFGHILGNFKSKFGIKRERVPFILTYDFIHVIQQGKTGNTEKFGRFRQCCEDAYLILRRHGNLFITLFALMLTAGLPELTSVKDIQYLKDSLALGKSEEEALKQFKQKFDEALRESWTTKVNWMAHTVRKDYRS

[27] = molecular target: FLT3 (human) (UniProt P36888)
Sequence of FLT3 (human) (P36888 whole entry, looked up): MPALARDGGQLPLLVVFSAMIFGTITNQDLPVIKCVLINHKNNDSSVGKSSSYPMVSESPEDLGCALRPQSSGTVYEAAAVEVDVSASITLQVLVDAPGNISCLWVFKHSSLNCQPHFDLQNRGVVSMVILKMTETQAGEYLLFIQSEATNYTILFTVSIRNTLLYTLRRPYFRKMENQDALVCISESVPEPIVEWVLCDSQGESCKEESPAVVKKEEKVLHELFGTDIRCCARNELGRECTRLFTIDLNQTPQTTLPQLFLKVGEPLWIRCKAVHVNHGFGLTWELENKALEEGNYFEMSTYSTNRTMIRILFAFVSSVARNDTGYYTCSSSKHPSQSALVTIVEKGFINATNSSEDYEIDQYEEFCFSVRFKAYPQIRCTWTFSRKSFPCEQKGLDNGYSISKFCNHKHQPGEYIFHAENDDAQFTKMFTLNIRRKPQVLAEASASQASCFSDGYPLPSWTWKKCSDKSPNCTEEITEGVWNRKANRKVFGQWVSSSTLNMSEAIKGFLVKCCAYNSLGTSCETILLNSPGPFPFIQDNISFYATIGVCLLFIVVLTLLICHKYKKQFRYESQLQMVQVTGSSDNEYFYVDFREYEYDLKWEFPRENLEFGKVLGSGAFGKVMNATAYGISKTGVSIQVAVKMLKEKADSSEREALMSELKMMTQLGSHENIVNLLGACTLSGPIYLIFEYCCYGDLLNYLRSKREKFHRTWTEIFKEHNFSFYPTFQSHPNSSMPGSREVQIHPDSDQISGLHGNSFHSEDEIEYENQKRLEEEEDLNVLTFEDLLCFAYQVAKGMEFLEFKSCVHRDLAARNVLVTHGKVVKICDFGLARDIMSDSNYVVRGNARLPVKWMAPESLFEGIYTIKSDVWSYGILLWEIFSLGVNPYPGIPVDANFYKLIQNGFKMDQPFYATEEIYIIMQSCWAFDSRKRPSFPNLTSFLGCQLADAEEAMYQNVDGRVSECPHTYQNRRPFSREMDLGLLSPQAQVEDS

[28] = molecular target: MAP3K4 (human) (UniProt Q9Y6R4)
[29] = molecular target: MYLK2 (human) (UniProt Q9H1R3)
[30] = molecular target: MAP4K1 (human) (UniProt Q92918)
[31] = molecular target: MAPK7 (human) (UniProt Q13164)
[32] = molecular target: TYK2 JH2 pseudokinase (human) (UniProt P29597)
[33] = molecular target: MERTK (human) (UniProt Q12866)
[34] = molecular target: LYN (human) (UniProt P07948)

Sequence of PKN1 (human) (Q16512 whole entry, looked up): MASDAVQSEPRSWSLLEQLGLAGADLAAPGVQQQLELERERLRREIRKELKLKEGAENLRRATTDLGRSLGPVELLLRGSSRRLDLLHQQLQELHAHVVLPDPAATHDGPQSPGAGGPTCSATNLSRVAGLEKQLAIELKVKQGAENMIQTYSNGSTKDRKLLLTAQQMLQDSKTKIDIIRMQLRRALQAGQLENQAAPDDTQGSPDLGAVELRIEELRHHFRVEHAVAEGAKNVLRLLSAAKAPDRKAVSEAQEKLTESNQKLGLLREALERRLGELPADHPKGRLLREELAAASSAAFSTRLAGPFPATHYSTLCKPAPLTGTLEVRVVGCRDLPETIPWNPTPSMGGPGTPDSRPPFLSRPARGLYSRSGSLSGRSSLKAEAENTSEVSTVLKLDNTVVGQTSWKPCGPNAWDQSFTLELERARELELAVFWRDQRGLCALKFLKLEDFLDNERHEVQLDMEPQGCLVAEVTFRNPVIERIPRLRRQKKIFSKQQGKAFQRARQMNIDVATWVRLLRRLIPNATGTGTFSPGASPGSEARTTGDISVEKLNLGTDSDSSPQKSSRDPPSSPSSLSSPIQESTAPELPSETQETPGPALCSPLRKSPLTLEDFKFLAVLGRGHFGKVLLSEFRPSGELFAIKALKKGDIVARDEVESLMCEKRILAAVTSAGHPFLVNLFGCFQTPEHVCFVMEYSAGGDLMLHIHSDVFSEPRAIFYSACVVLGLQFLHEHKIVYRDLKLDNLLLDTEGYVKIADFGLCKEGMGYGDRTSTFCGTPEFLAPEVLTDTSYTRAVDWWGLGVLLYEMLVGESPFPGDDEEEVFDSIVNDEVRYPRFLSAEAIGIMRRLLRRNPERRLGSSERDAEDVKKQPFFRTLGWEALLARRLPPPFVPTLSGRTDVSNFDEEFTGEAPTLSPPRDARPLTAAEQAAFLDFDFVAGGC

Compound	kinase still bound, per cent of control [1]	kinase still bound, per cent of control [3]	kinase still bound, per cent of control [5]	kinase still bound, per cent of control [6]	kinase still bound, per cent of control [7]	kinase still bound, per cent of control [9]	kinase still bound, per cent of control [10]	kinase still bound, per cent of control [11]	kinase still bound, per cent of control [12]	kinase still bound, per cent of control [15]	kinase still bound, per cent of control [16]	kinase still bound, per cent of control [18]	kinase still bound, per cent of control [19]	kinase still bound, per cent of control [20]	kinase still bound, per cent of control [21]	kinase still bound, per cent of control [22]	kinase still bound, per cent of control [23]	kinase still bound, per cent of control [24]	kinase still bound, per cent of control [25]	kinase still bound, per cent of control [26]	also measured
N#Cc1cc(-c2ccnc(Nc3ccc(-n4cnc(-c5cccnc5)n4)cc3)n2)cc(N2CCOCC2)c1	24%	66%	48%	0.95%	30%	2.2%	100%	100%	37%	39%	100%	12%	1.4%	2.8%	93%	21%	80%	88%	91%	100%	kinase still bound, per cent of control [2]: 100%; kinase still bound, per cent of control [4]: 76%; kinase still bound, per cent of control [8]: 60%; kinase still bound, per cent of control [13]: 100%; kinase still bound, per cent of control [14]: 59%; kinase still bound, per cent of control [17]: 100%; kinase still bound, per cent of control [27]: 18%; kinase still bound, per cent of control [28]: 50%; kinase still bound, per cent of control [29]: 56%; kinase still bound, per cent of control [30]: 26%; kinase still bound, per cent of control [31]: 100%; kinase still bound, per cent of control [32]: 12%; kinase still bound, per cent of control [33]: 57%; kinase still bound, per cent of control [34]: 78%
C=CC(=O)Nc1ccc(C(=O)c2sc(Nc3ccc(N4CCN(C)CC4)cc3OC)nc2N)cc1	38%	39%	97%	90%	65%	14%	100%	0.2%	5.1%	69%	100%	50%	53%	20%	38%	71%	78%	84%	89%	86%	kinase still bound, per cent of control [2]: 24%; kinase still bound, per cent of control [4]: 76%; kinase still bound, per cent of control [8]: 73%; kinase still bound, per cent of control [13]: 100%; kinase still bound, per cent of control [14]: 100%; kinase still bound, per cent of control [17]: 71%; kinase still bound, per cent of control [27]: 73%; kinase still bound, per cent of control [28]: 100%; kinase still bound, per cent of control [29]: 66%; kinase still bound, per cent of control [30]: 84%; kinase still bound, per cent of control [31]: 9.8%; kinase still bound, per cent of control [32]: 66%; kinase still bound, per cent of control [33]: 100%; kinase still bound, per cent of control [34]: 100%
CC1=C(C(=O)Nc2cc3cn[nH]c3cc2F)C(c2ccc(C(F)(F)F)cc2)CC(=O)N1 (stereo unspecified)	78%	76%	19%	98%	82%	81%	100%	100%	74%	90%	98%	100%	86%	98%	73%	79%	98%	80%	86%	86%	kinase still bound, per cent of control [2]: 90%; kinase still bound, per cent of control [4]: 92%; kinase still bound, per cent of control [8]: 86%; kinase still bound, per cent of control [13]: 55%; kinase still bound, per cent of control [14]: 28%; kinase still bound, per cent of control [17]: 52%; kinase still bound, per cent of control [27]: 100%; kinase still bound, per cent of control [28]: 97%; kinase still bound, per cent of control [29]: 99%; kinase still bound, per cent of control [30]: 87%; kinase still bound, per cent of control [31]: 82%; kinase still bound, per cent of control [32]: 100%; kinase still bound, per cent of control [33]: 91%; kinase still bound, per cent of control [34]: 72%
CC(=O)c1c(C)c2cnc(Nc3ccc(N4CCNCC4)cn3)nc2n(C2CCCC2)c1=O	23%	0.85%	66%	57%	4.2%	0.05%	8%	3.2%	3.1%	42%	28%	3.4%	56%	1%	66%	35%	62%	69%	98%	7.3%	kinase still bound, per cent of control [27]: 35%; kinase still bound, per cent of control [29]: 32%; kinase still bound, per cent of control [30]: 47%; kinase still bound, per cent of control [31]: 0.65%; kinase still bound, per cent of control [33]: 39%
CCN1CCN(Cc2ccc(NC(=O)c3ccc(C)c(/C=C/c4cnc5[nH]ccc5c4OC)c3)cc2C(F)(F)F)CC1	4.2%	3.5%	16%	100%	1.4%	90%	38%	30%	8.5%	100%	78%	54%	19%	100%	0.1%	100%	100%	64%	3.6%	100%	kinase still bound, per cent of control [2]: 48%; kinase still bound, per cent of control [4]: 17%; kinase still bound, per cent of control [8]: 87%; kinase still bound, per cent of control [13]: 100%; kinase still bound, per cent of control [14]: 39%; kinase still bound, per cent of control [17]: 100%; kinase still bound, per cent of control [27]: 0.95%; kinase still bound, per cent of control [28]: 66%; kinase still bound, per cent of control [29]: 0.55%; kinase still bound, per cent of control [30]: 0%; kinase still bound, per cent of control [31]: 73%; kinase still bound, per cent of control [32]: 100%; kinase still bound, per cent of control [33]: 9.2%; kinase still bound, per cent of control [34]: 0%
